Source: patent US20070049538A1, “METHODS FOR USING CUCURBITACIN COMPOUNDS” (SOUTH DAKOTA STATE UNIVERSITY, priority 2005, published 2007)

How the values were obtained:
HepG2 cells [1] = test: Cucurbitacins cytotoxicity on HepG2 cells (MTT viability assay); type: cell-based, human
Protocol: HepG2 (human hepatocellular carcinoma, ATCC) cells were grown in EMEM (Gibco, Grand Island, N.Y.) supplemented with 10% fetal bovine serum (FBS), and 1% penicillin/fungizone mixture (Gibco). Thabrew's optimized procedure (Thabrew et al., J. Pharm. Pharmcol. 49 (1994) 1442, the entire disclosure of which is herein incorporated by reference) was followed. Cells were batch cultured for 10 days, then seeded at concentration of 30,000 cells/well in fresh media in 96-well microtiter plastic plates at 37° C. for a day. Then cells were exposed to different concentrations of cucurbitacins at final volume of 100 μl/well. Five-fold serial dilution of compounds was carried out in the plate for five consecutive wells. After 24 h of incubation with chemicals, live cells were visualized using the MTT viability assay (Promega, Madison, Wis.). The absorbance was measured at 570 nm. Negative (without cells) and positive (without test chemicals) controls were also incubated with each plate. […] At least three reproducible experiments were performed per compound with three replicate wells per concentration.
Cells were challenged with cu-curbitacins at various concentrations for a day and then live cells quantified with MTT dye. This period of time measures exclusively compounds cytotoxicity, while longer incubation time may lead to interference from metabolites.

[2] = Chromatographic hydrophobicity index (CHI) by RP-HPLC in buffered acetonitrile; type: physicochemical; set-up: key: CHI = φ0 (isocratic hydrophobicity index), = A·tR + B; ACN % scale; conditions: for CHIACN1: buffered acetonitrile pH 7.0, Alltima C18 250 mm, Eq. (2) from isocratic φ0; for CHIACN2: buffered acetonitrile pH 7.0, Eq. (3) calibrated against published CHI
Protocol: (§1) We used Dynamax liquid chromatograph (Varian Chromatography Systems) with PDA-2 photodiode array UV detector, controlled by the Dynamax PC Chromatography Data System (v. 1.9) software and Dynamax dual pump solvent delivery system, model SD-200. […] Cucurbitacins analytical separation was optimized on Alltima C18 (Alltech; 250 mm×4.6 mm, 5 μm) HPLC column, at gradient elution in acetonitrile (ACN, 30-70% ACN in 57 min), and in MeOH (60-75% MeOH in 50 min). Cucurbitacins stock concentration of 10^−2M in DMSO:ethanol (1:1) was standardized against pure cucurbitacin I (Indofine Chemical Company, Hillsborough, N.J.) by analytical HPLC means. Compounds CHI was measured in both ACN, by using Alltima C18 column, and in MeOH, by using Econosil C18 column (Alltech; 150 mm×4.6 mm, 5 μm). Analytical separations were conducted at a flow rate of 1 ml/min. The aqueous phase was buffered for the CHI measurement. For this purpose, solid ammonium acetate (Fisher Sci. Co., Fair Lawn, N.J.) was dissolved in deionized distilled water at 50 mM final concentration and its pH adjusted to 7.0.
All standard compounds were purchased from Acros (Acros Organics, NJ). The chromatographic lipophilicity or hydrophobicity was determined applying Valkó's technique (Valkó et al., Anal. Chem. 69 (1997) 2022, the entire disclosure of which is herein incorporated by reference). A standard mixture of seven compounds was prepared in solution: theophylline (compound 19), benzimidazole (compound 20), acetophenone (compound 21), indole (compound 22), propiophenone (compound 23), butyrophenone (compound 24), and valerophenone (compound 25). […] The retention factor, log k=log((tR-t0)/t0), was calculated for each analyte from five good injections of […] sample. The dead time (t0) was measured by injecting NaNO3 together with the sample. Then, the log k values were plotted against isocratic ACN concentrations to establish the linear regression equations for each analyte. From each straight line the isocratic hydrophobicity index was computed, φ0=(intercept/slope). Further, the calibration mixture was injected at fast gradient elution, 0-22 min 0-100% ACN, and three additional minutes at 100% ACN. The φ0 values for the test compounds were plotted against gradient retention time and the linear equation determined from the following equation: φ0=CHI=AtR+B (1)
The gradient elution conditions were similar to the one from the first approach.
(§2) Cucurbitacins lipophilicity was measured by RP-HPLC. […] Due to its high viscosity, aqueous MeOH required a shorter column than the one applied for ACN. First, the C18 columns were calibrated against a standard mixture, and the relationships established between the fast gradient tR and φ0 or published CHI (see Eqs. (2)-(4) from Table 2). Second, cucurbitacins were injected at fast gradient elution under similar conditions, and their CHI calculated (Table 4) from Eqs. (2)-(4). Eqs.

[3] = Chromatographic hydrophobicity index (CHI) by RP-HPLC in buffered methanol; type: physicochemical; conditions: for CHIMeOH: buffered methanol pH 7.0, Econosil C18 150 mm, Eq. (4); for CHIMeOH (b): standard compounds, isochratic and gradient elution of standard mixture
Protocol: as §1
A standard mixture of 10 compounds including 19-21, 23-27, aniline (compound 28) and bromobenzene (compound 29), dissolved in MeOH, was injected at five isochratic elution, at 40, 45, 50, 55, and 60% MeOH. Then the mixture was injected at fast gradient elution to establish the correlation from Eq. (1). The fast linear gradient elution was optimized for 30-100% MeOH in aqueous buffer with 10 min runtime.
as §2

HepG2 cells [4] = test: cells; conditions: for EC50: read-out: EC50 cytoprotection, Table 7, HepG2 against CCl4 toxicity, estimated
Description: Experimental conditions were standardized on silybin. […]
The ratio of IC50-to-EC50 (hereafter T/A) is also indicated in this table, which gives the margin between toxic and cytoprotective concentrations.

HSC-T6 cells [5] = test: Serum-driven HSC-T6 proliferation, experiment 1 (4 h challenge, two days drug-free growth); type: cell-based, rat; conditions: for EC50: HSC-T6, 4 h challenge, then two days drug-free media
Protocol: The proliferation effect of serum on HSC-T6 cells was optimized and cucurbitacin antiproliferative activity was measured. Serum contains a large number of growth factors, hormones and other nutrients, which help cells to grow and multiply. Several trials were conducted. In experiment 1, cells were challenged with cucurbitacin analogs for 4 h and then cells were grown in drug-free media for two additional days.
HSC-T6 cells were photographed under phase-contrast microscope to record possible changes in cell morphology during experiment 1. […] We are monitoring specifically the effect of compound on the cells, cell recovery after 4 h challenge, and relative cell proliferation. […] Live cells are quantified at the end of the assay (row 4) with MTT dye.
(§3) We established several experimental conditions such as 4 hours of incubation time with cucurbitacin, and 2 day cell incubation with fresh media after challenging with cucurbitacin (Exp. 1). Other experiments involved addition of cucurbitacin for 24 hours over starved cells (Exp. 2) vs. proliferating cells (Exp. 3), and one day incubation of cells with fresh media after challenge. […] Because of that, the challenge time was increased to 24 hours (Exp. 2 and 3).
We modified this approach. Our assay included a second control (ZC) supplemented with no serum intended to measure cucurbitacin anti-proliferation effect relative to the number of cells generated during challenge instead of the total number of cells present in each well.

HSC-T6 cells [6] = test: Serum-driven HSC-T6 proliferation, experiment 3 (24 h, proliferating cells); type: cell-based, rat; conditions: HSC-T6, 24 h, proliferating cells; read-out: Experiment 3 EC50 (A)
Protocol: To overcome this problem, the amount of incubation time was increased to 24 h, and cucurbitacin activity measured on starved (Exp. 2) or proliferative (Exp. 3) cells (Table 8). Cells turned quiescent when serum was not supplemented for one day (Exp. 2). Activity of a few compounds was monitored on quiescent cells, and their activity compared to the ones measured on proliferating cells (Exp. 3).
as §3, with “challenge. The 4 hour incubation period with cucurbitacin triggered anti-proliferation effect. This effect, however, was hindered by a second cycle of cell proliferation during the two-day cell growth period (see silybin, E and I glucosides, and for I-nPr).” for “challenge.”
In experiment 3, only 40% of the cells divided. The ratio of EC50 values for exp. 2 and exp. 3 varied between 3.6 and 12.7. This may indicate differential cytotoxicity of silybin and cucurbitacin analogs over quiescent and active stellate cells. In other words, compounds show higher anti-proliferative activity on active cells than on quiescent cells.

HSC-T6 cells [7] = test: Cytotoxicity on HSC-T6 cells (experiment 3); type: cell-based, rat; conditions: read-out: Experiment 3 IC50 (T)
Description: Cytotoxicity of all cucurbitacin analogs was additionally measured in experiment 3 (Table 8).

[8] = standard compounds; gradient elution and correlation with published data; cited from earlier work

SMILES	IC50 (HepG2 cells [1]; Table 4, 24 h incubation, MTT) [µM]	IC50 (HepG2 cells [1]; Table 5) [µM]	IC50 (HepG2 cells [1]; Table 7) [µM]	CHIACN1 [2]	CHIACN2 [2]	CHIMeOH [3]	cytoprotection on HepG2 cells (HepG2 cells [4]; at 6.25% of IC50, against CCl4)	cytoprotection on HepG2 cells (HepG2 cells [4]; at 12.5% of IC50, against CCl4)	cytoprotection on HepG2 cells (HepG2 cells [4]; at 20% of IC50, against CCl4)	cytoprotection on HepG2 cells (HepG2 cells [4]; at 50% of IC50, against CCl4)	EC50 (HepG2 cells [4]) [µM]	EC50 (HSC-T6 cells [5]) [µM]	EC50 (HSC-T6 cells [6]) [µM]	IC50 (HSC-T6 cells [7]) [µM]	Experiment 1 anti-proliferation activity (HSC-T6 cells [5]; measured at 100 μM)	CHIACN (b) ([2]; standard compounds, isochratic and gradient elution of standard mixture)	CHIACN (c) [8]	Experiment 1 anti-proliferation activity (HSC-T6 cells [5]; measured at 2-6 μM)	CHIMeOH (b) [3]
CC(C)(O)/C=C/C(=O)[C@](C)(O)[C@H]1[C@H](O)C[C@@]2(C)[C@@H]3CC=C4[C@@H](C=C(O)C(=O)C4(C)C)[C@]3(C)C(=O)C[C@]12C [I, cucurbitacin I]	15.8	15.8 ± 6.7	15.8	63.27	63.53	63.86	4.55 ± 0.64	17.50 ± 1.32	50.09 ± 1.02	54.75 ± 0.29	3.2	0.36	0.02	3.6					
CC(C)OC1=CC2C(=CCC3C2(C)C(=O)CC2(C)C(C(C)(O)C(=O)C=CC(C)(C)O)C(O)CC32C)C(C)(C)C1=O (stereo not shown) [I-iPr]	7 ± 1	7.3 ± 0.6		73.87	79.94	71.55	−17.10 ± 1.54	4.15 ± 0.48	18.69 ± 0.13	41.73 ± 2.06		3.85	0.25	2.5					
CC(C)(O)/C=C/C(=O)[C@](C)(O)C1[C@H](O)C[C@@]2(C)C3CC=C4C(C=C(O[C@@H]5O[C@H](CO)[C@@H](O)[C@H](O)[C@H]5O)C(=O)C4(C)C)[C@]3(C)C(=O)C[C@]12C (stereo partly shown) [I-Gluc, cucurbitacin I glucoside]	390 ± 10	390 ± 10		46.48	37.50	56.41							4.15	256	˜20%^a^				
c1ccc2[nH]ccc2c1 [Indole (22), indole, reference compound]																67.73 + 0.13	69.15		
CCCOC1=CC2C(=CCC3C2(C)C(=O)CC2(C)C(C(C)(O)C(=O)C=CC(C)(C)O)C(O)CC32C)C(C)(C)C1=O (stereo not shown) [I-nPr]	5	5 ± 0.5		75.92	83.13	72.88							0.33	2.5				˜18%^b^	
CCOC1=CC2C(=CCC3C2(C)C(=O)CC2(C)C(C(C)(O)C(=O)C=CC(C)(C)OC(C)=O)C(O)CC32C)C(C)(C)C1=O (stereo not shown) [E-Et]	5.1	5.1 ± 0.9		82.76	93.73	74.25						5.6	0.27	3.5					
Nc1ccccc1 [Aniline (28), aniline, reference compound]																			29.94 ± 0.05
CC(C)(O)/C=C/C(=O)C(C)(O)C1C(O)CC2(C)C3CC=C4C(CC(=O)C(O)C4(C)C)C3(C)C(=O)CC12C (stereo not shown) [iso-D]	80.3	80.3 ± 3.5	80.3	60.59	59.37	62.27					13.8	2.13	0.06	8.7					
Cn1c(=O)c2nc(-c3ccccc3)[nH]c2n(C)c1=O [Ph-theophylline (27), phenyltheophylline, reference compound]																	52.04		61.61 ± 0.04
CC(=O)OC(C)(C)C=CC(=O)C(C)(O)C1C(O)CC2(C)C3CC=C4C(C=C(OC(C)C)C(=O)C4(C)C)C3(C)C(=O)CC12C (stereo not shown) [E-iPr]	4.3	4.3 ± 0.5		86.84	100.04	76.30	−0.60 ± 1.11	−7.81 ± 0.68	−7.00 ± 0.17	−32.99 ± 1.70		2.13	0.32	2.5					
COc1cc2c(c(OC)c1OC)-c1ccc(OC)c(=O)cc1[C@@H](NC(C)=O)CC2 [Colchicine (26), colchicine, reference compound]																	41.37		57.56 + 0.04
CCCOC1=CC2C(=CCC3C2(C)C(=O)CC2(C)C(C(C)(O)C(=O)C=CC(C)(C)OC(C)=O)C(O)CC32C)C(C)(C)C1=O (stereo not shown) [E-nPr]				88.34	102.37	77.66						2.28	0.34	2.8					
